Experimental data taken from patent US9499550B2 (BRISTOL-MYERS SQUIBB COMPANY, priority 2012, dated 2016).
Like-named read-outs stand apart in the source and are kept apart here.

How the values were obtained:
[1] = test system: HCV genotype 1a (H77 strain) replicon in HUH-7 cells; experiment: HCV replicon luciferase reporter assay, genotype 1a; format: cell-based; settings: Hepatitis C virus, Huh-7, 72 h, HCV genotype 1a replicon luciferase assay, 3 days incubation
Source text: (§1) Generation of HCV Replicon
(§2) An HCV replicon whole cell system was established as described by Lohmann V, Korner F, Koch J, Herian U, Theilmann L, Bartenschlager R., Science 285(5424):110-3 (1999) and modified to introduce a luciferase reporter, as first described by Krieger et al (Krieger N, Lohmann V, and Bartenschlager R, J. Virol. 75(10):4614-4624 (2001)). CDNA encoding a humanized form of the Renilla luciferase gene and a linker sequence fused directly to the 3′-end of the luciferase gene were introduced into the replicon construct using an Asc1 restriction site located in core, directly upstream of the neomycin marker gene. The adaptive mutation at position 1179 (serine to isoleucine) was also introduced (Blight K J, Kolykhalov, A A, Rice, C M, Science 290(5498):1972-1974). A stable cell line constitutively expressing this HCV replicon construct was generated by first linearizing plasmid DNAs with ScaI. RNA transcripts were synthesized in vitro using the T7 MegaScript transcription kit (Ambion, Austin, Tex.) according to manufacturer's directions. In vitro transcripts of the cDNA were transfected into the human hepatoma cell line, HUH-7. […] Resulting cell lines were characterized for positive and negative strand RNA production and protein production over time.
A stable HCV replicon luciferase reporter cell line representing the genotype 1a H77 strain (Yanagi M, Purcell R H, Emerson S U, et al. Transcripts from a single full-length cDNA clone of hepatitis C virus are infectious when directly transfected into the liver of a chimpanzee. Proc Natl Acad Sci USA 1997; 94(16):8738-8743) was generated as described previously for the genotype 1b(Con1) replicon luciferase cell line. The replicon construct was modified by introducing mutations were introduced into the genes encoding the NS3 helicase domain (proline replaced by leucine at position 1496) and NSSA (serine to isoleucine at position 2204) to improve replication in cell culture.
(§3) HCV Replicon Luciferase Reporter Assay
(§4) HCV replicon luciferase assays were developed to monitor the inhibitory effects of compounds described in the disclosure on HCV genotypes 1a and 1b viral replication. HUH-7 cells, constitutively expressing the HCV replicon, were grown in Dulbecco's Modified Eagle Media (DMEM) (Gibco-BRL) containing 10% Fetal calf serum (FCS) (Sigma) and 1 mg/mL G418 (Gibco-BRL). Compounds were serially diluted 3 folds in DMSO for a twenty-point titration and subsequently transferred to sterile 384-well tissue-culture treated plates (Corning cat #3571). The plates were then seeded with 50 μL of cells at a density of 3.0×10^3 cells/well in DMEM containing 4% FCS (final DMSO concentration at 0.5%). After 3 days incubation at 37° C., cells were analyzed for Renilla Luciferase activity using the EnduRen as substrate (Promega cat #E6485). The EnduRen substrate was diluted in DMEM and then added to the plates to a final concentration of 7.5 μM. The plates were incubated for 2 hrs at 37° C. and then read immediately for 30 seconds with Viewlux Imager (PerkinElmer) using a luminescence program. To assess cytotoxicity of compounds, CC50 values were generated by multiplexing the EnduRen-containing plates with Cell Titer-Blue (Promega, cat # G8082). Cell-Titer Blue (3 μL) was added to each well and incubated for 8 hrs at 37° C. The fluorescence signal from each well was read, with an excitation wavelength at 525/10 nm and an emission wavelength of 598/10 nm, using the Viewlux Imager.
(§5) The EC50 values for compounds were calculated by using a four-parameter logistic equation: y=A+((B−A)/(1+((C/x)^D))), where A and B denotes minimal and maximal % inhibition, respectively, C is the EC50, D is the hill slope and x represents compound concentration.

[2] = test system: HCV genotype 1b (Con1) replicon in HUH-7 cells; experiment: HCV replicon luciferase reporter assay, genotype 1b; format: cell-based; settings: Hepatitis C virus, Huh-7, 72 h, HCV genotype 1b replicon luciferase assay, 3 days incubation
Source text: as §1
as §2, with “time. […]” for “time.”
as §3, §4, §5

[3] = range class, read-out: LE_1a (EC50, range)
[4] = range class, read-out: LE_1b (EC50, range)
[5] = GETYPE1A, range class, read-out: LE_1a (EC50, range)
[6] = GETYPE1B, range class, read-out: LE_1b (EC50, range)

| Compound | EC50 [1, 3] | EC50 [2, 4] | EC50 [1, 5] | EC50 [2, 6] | EC50 ([1]; read-out: LE_1a (EC50)) | EC50 ([2]; read-out: LE_1b (EC50)) |
| --- | --- | --- | --- | --- | --- | --- |
| COc1cnc(O[C@@H]2C[C@H]3C(=O)N[C@]4(C(=O)NS(=O)(=O)C5CC5)C[C@H]4/C=C\CC[C@H](C)C[C@@H](C)[C@H](NC(=O)OC(C)(C)C(F)(F)F)C(=O)N3C2)c2cccc(Cl)c12 [Compound 28, 1,1,1-trifluoro-2-methylpropan-2-yl((2R,6S,7R,9S,13aS,14aR,16aS,Z)-2-((5-chloro-4-methoxyisoquinolin-1-yl)oxy)-14a-((cyclopropylsulfonyl)carbamoyl)-7,9-dimethyl-5,16-dioxo-1,2,3,5,6,7,8,9,10,11,13a,14,14a,15,16,16a-hexadecahydrocyclopropa[e]pyrrolo[1,2-a][1,4]diazacyclopentadecin-6-yl)carbamate] | < 0.00546 µM | < 0.00546 µM |  |  |  |  |
| COc1cnc(O[C@@H]2C[C@H]3C(=O)N[C@]4(C(=O)NS(=O)(=O)C5(F)CC5)C[C@H]4/C=C\CC[C@@H](C)C[C@@H](C)[C@H](NC(=O)OC(C)(C)C(F)(F)F)C(=O)N3C2)c2cccc(Cl)c12 [Compound 30] |  |  | < 0.00546 µM | < 0.00546 µM |  |  |
| C[C@@H]1CC/C=C\[C@@H]2C[C@@]2(C(=O)NS(=O)(=O)C2CC2)NC(=O)[C@@H]2C[C@@H](Oc3ncc(OC4CC4)c4c(Cl)cccc34)CN2C(=O)[C@@H](NC(=O)OC(C)(C)C(F)(F)F)[C@H](C)C1 [Compound 32] |  |  | < 0.00546 µM | < 0.00546 µM |  |  |
| CC(C)n1nc(O[C@@H]2C[C@H]3C(=O)N[C@]4(C(=O)NS(=O)(=O)C5CC5)C[C@H]4/C=C\CC[C@H](C)C[C@@H](C)[C@H](NC(=O)OC(C)(C)C)C(=O)N3C2)c2ccccc2c1=O [Compound 1001, tert-butyl ((2R,6S,7R,9S,13aS,14aR,16aS,Z)-14a-((cyclopropylsulfonyl)carbamoyl)-2-((3-isopropyl-4-oxo-3,4-dihydrophthalazin-1-yl)oxy)-7,9-dimethyl-5,16-dioxo-1,2,3,5,6,7,8,9,10,11,13a,14,14a,15,16,16a-hexadecahydrocyclopropa[e]pyrrolo[1,2-a][1,4]diazacyclopentadecin-6-yl)carbamate] | > 0.0874 µM | > 0.0874 µM |  |  | ≥ 1 µM | 0.449 µM |
| CC(C)n1nc(O[C@@H]2C[C@H]3C(=O)N[C@]4(C(=O)NS(=O)(=O)C5CC5)C[C@H]4/C=C\CC[C@@H](C)C[C@@H](C)[C@H](NC(=O)OC(C)(C)C)C(=O)N3C2)c2ccccc2c1=O [Compound 1002, tert-butyl ((2R,6S,7R,9R,13aS,14aR,16aS,Z)-14a-((cyclopropylsulfonyl)carbamoyl)-2-((3-isopropyl-4-oxo-3,4-dihydrophthalazin-1-yl)oxy)-7,9-dimethyl-5,16-dioxo-1,2,3,5,6,7,8,9,10,11,13a,14,14a,15,16,16a-hexadecahydrocyclopropa[e]pyrrolo[1,2-a][1,4]diazacyclopentadecin-6-yl)carbamate] | > 0.0874 µM | 0.00482 to 0.103 µM |  |  |  |  |
| CC(C)n1nc(O[C@@H]2C[C@H]3C(=O)N[C@]4(C(=O)NS(=O)(=O)C5(C)CC5)C[C@H]4/C=C\CC[C@H](C)C[C@@H](C)[C@H](NC(=O)OC(C)(C)C)C(=O)N3C2)c2ccccc2c1=O [Compound 1003, tert-butyl ((2R,6S,7R,9S,13aS,14aR,16aS,Z)-2-((3-isopropyl-4-oxo-3,4-dihydrophthalazin-1-yl)oxy)-7,9-dimethyl-14a-(((1-methylcyclopropyl)sulfonyl)carbamoyl)-5,16-dioxo-1,2,3,5,6,7,8,9,10,11,13a,14,14a,15,16,16a-hexadecahydrocyclopropa[e]pyrrolo[1,2-a][1,4]diazacyclopentadecin-6-yl)carbamate] | > 0.0874 µM | > 0.0874 µM |  |  |  |  |
| CC(C)n1nc(O[C@@H]2C[C@H]3C(=O)N[C@]4(C(=O)NS(=O)(=O)C5(C)CC5)C[C@H]4/C=C\CC[C@@H](C)C[C@@H](C)[C@H](NC(=O)OC(C)(C)C)C(=O)N3C2)c2ccccc2c1=O [Compound 1004, tert-butyl ((2R,6S,7R,9R,13aS,14aR,16aS,Z)-2-((3-isopropyl-4-oxo-3,4-dihydrophthalazin-1-yl)oxy)-7,9-dimethyl-14a-(((1-methylcyclopropyl)sulfonyl)carbamoyl)-5,16-dioxo-1,2,3,5,6,7,8,9,10,11,13a,14,14a,15,16,16a-hexadecahydrocyclopropa[e]pyrrolo[1,2-a][1,4]diazacyclopentadecin-6-yl)carbamate] | > 0.0874 µM | 0.00482 to 0.103 µM |  |  | 0.11 µM | 0.0488 µM |
| COCCn1nc(O[C@@H]2C[C@H]3C(=O)N[C@]4(C(=O)NS(=O)(=O)C5(C)CC5)C[C@H]4/C=C\CC[C@H](C)C[C@@H](C)[C@H](NC(=O)OC(C)(C)C)C(=O)N3C2)c2ccccc2c1=O [Compound 1005, tert-butyl ((2R,6S,7R,9S,13aS,14aR,16aS,Z)-2-((3-(2-methoxyethyl)-4-oxo-3,4-dihydrophthalazin-1-yl)oxy)-7,9-dimethyl-14a-(((1-methylcyclopropyl)sulfonyl)carbamoyl)-5,16-dioxo-1,2,3,5,6,7,8,9,10,11,13a,14,14a,15,16,16a-hexadecahydrocyclopropa[e]pyrrolo[1,2-a][1,4]diazacyclopentadecin-6-yl)carbamate] | > 0.0874 µM | > 0.0874 µM |  |  |  |  |
| COCCn1nc(O[C@@H]2C[C@H]3C(=O)N[C@]4(C(=O)NS(=O)(=O)C5(C)CC5)C[C@H]4/C=C\CC[C@@H](C)C[C@@H](C)[C@H](NC(=O)OC(C)(C)C)C(=O)N3C2)c2ccccc2c1=O [Compound 1006, tert-butyl ((2R,6S,7R,9R,13aS,14aR,16aS,Z)-2-((3-(2-methoxyethyl)-4-oxo-3,4-dihydrophthalazin-1-yl)oxy)-7,9-dimethyl-14a-(((1-methylcyclopropyl)sulfonyl)carbamoyl)-5,16-dioxo-1,2,3,5,6,7,8,9,10,11,13a,14,14a,15,16,16a-hexadecahydrocyclopropa[e]pyrrolo[1,2-a][1,4]diazacyclopentadecin-6-yl)carbamate] | 0.00482 to 0.103 µM | 0.00482 to 0.103 µM |  |  |  |  |
